Assay results as given in US20090029981A1, “SUBSTITUTED 4-PHENYLPIPERIDINES” (priority 2006, published 2009).

Target: T1, renin (Homo sapiens, UniProt P00797)
T1 construct: This test measures the formation of angiotensin I in human plasma; from tissue; host or cells: human plasma
T1 sequence (P00797 67-406): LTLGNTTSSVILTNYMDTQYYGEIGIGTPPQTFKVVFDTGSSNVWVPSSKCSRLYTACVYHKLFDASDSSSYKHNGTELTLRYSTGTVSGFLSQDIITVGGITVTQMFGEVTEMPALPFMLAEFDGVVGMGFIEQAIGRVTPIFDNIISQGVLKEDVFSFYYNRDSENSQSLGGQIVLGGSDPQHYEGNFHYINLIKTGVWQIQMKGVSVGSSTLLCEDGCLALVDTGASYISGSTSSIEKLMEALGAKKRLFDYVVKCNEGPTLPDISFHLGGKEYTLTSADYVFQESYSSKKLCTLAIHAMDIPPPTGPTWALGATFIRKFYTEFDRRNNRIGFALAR
Assay: Formation of angiotensin I in human plasma (in vitro test of Nussberger et al.), radio-immunoassay
Format: biochemical
Details: one range stated for the listed examples together, about, read-out: IC50, concentration of the inhibitor which reduces the formation of angiotensin I by 50%
Excerpt: The compounds of the formula (I) or (IA), and their pharmaceutically acceptable salts have an inhibitory effect on the natural enzyme renin. The latter passes from the kidneys into the blood and there brings about the cleavage of angiotensinogen to form the decapeptide angiotensin I which is then cleaved in the lung, the kidneys and other organs to the octa-peptide angiotensin II. Angiotensin II raises the blood pressure both directly by arterial constriction, and indirectly by releasing the hormone aldosterone, which retains sodium ions, from the adrenals, which is associated with an increase in the extracellular fluid volume. This increase is attributable to the effect of angiotensin II itself or of the heptapeptide angiotensin III formed therefrom as cleavage product. Inhibitors of the enzymatic activity of renin bring about a reduction in the formation of angiotensin I and, as a consequence thereof, the formation of a smaller amount of angiotensin II. The reduced concentration of this active peptide hormone is the direct cause of the blood pressure-lowering effect of renin inhibitors.
The effect of renin inhibitors is detected inter alia experimentally by means of in vitro tests where the reduction in the formation of angiotensin I is measured in various systems (human plasma, purified human renin together with synthetic or natural renin substrate). The following in vitro test of Nussberger et al. (1987) J. Cardiovascular Pharmacol., Vol. 9, pp. 39-44, is used inter alia. This test measures the formation of angiotensin I in human plasma. The amount of angiotensin I formed is determined in a subsequent radio-immunoassay. The effect of inhibitors on the formation of angiotensin I is tested in this system by adding various concentrations of these substances. The IC50 is defined as the concentration of the particular inhibitor which reduces the formation of angiotensin I by 50%. The compounds of the present invention show inhibitory effects in the in vitro systems at minimal concentrations of about 10^−6 to about 10^−10 mol/l.

IC50 | SMILES
3.8 to 814 nM | COCCCSc1ccc([C@@H]2[C@@H](OCc3ccc4c(c3)N(CCCOC)CCO4)CNC[C@H]2OC[C@H](O)COC)cc1 [Example 71, (R)-1-Methoxy-3-{(3S,4R,5R)-5-[4-(3-methoxypropyl)-3,4-dihydro-2H-benzo[1,4]oxazin-6-ylmethoxy]-4-[4-(3-methoxypropylsulfanyl)phenyl]piperidin-3-yloxy}propan-2-ol]
3.8 to 814 nM | COCCCN1CCOc2ccc(CO[C@H]3CNC[C@@H](OC[C@H](O)COC)[C@@H]3c3ccc(C#N)cc3)cc21 [Example 73, 4-{(3S,4R,5R)-3((R)-2-Hydroxy-3-methoxypropoxy)-5-[4-(3-methoxypropyl)-3,4-dihydro-2H-benzo[1,4]oxazin-6-ylmethoxy]piperidin-4-yl}benzonitrile]
3.8 to 814 nM | COCCCN1CCOc2ccc(CO[C@H]3CNC[C@@H](OC[C@@H](O)COC)[C@@H]3c3ccc(C#N)cc3)cc21 [Example 74, 4-{(3S,4R,5R)-3((S)-2-Hydroxy-3-methoxypropoxy)-5-[4-(3-methoxypropyl)-3,4-dihydro-2H-benzo[1,4]oxazin-6-ylmethoxy]piperidin-4-yl}-benzonitrile]
3.8 to 814 nM | COCCCN1CCOc2ccc(CO[C@H]3CNC[C@@H](CNC(C)C)[C@@H]3c3ccc(OC)cc3)cc21 [Example 87, Isopropyl-{(3S,4R,5R)-4-(4-methoxyphenyl)-5-[4-(3-methoxypropyl)-3,4-dihydro-2H-benzo[1,4]oxazin-6-ylmethoxy]piperidin-3-ylmethyl}amine]
3.8 to 814 nM | COCCCN1CCOc2ccc(CO[C@H]3CNC[C@@H](CNC(C)=O)[C@@H]3c3ccc(OC)cc3)cc21 [Example 91, N-{(3S,4R,5R)-4-(4-Methoxyphenyl)-5-[4-(3-methoxypropyl)-3,4-dihydro-2H-benzo[1,4]oxazin-6-ylmethoxy]piperidin-3-ylmethyl}acetamide]

The remaining lines, values behind:

SMILES | IC50
C#CCO[C@@H]1CNC[C@H](OCc2ccc3c(c2)N(CCCOC)CCO3)C1c1ccc(OC)cc1 (stereo in doubt) [Example 5, 6-[(3R,4R,5S)-4-(4-Methoxyphenyl)-5-prop-2-ynyloxypiperidin-3-yloxymethyl]-4-(3-methoxy-propyl)-3,4-dihydro-2H-benzo[1,4]oxazine] | 3.8 to 814 nM
COCCCN1CCOc2ccc(CO[C@H]3CNC[C@@H](OCC#N)[C@@H]3c3ccc(OC)cc3)cc21 [Example 1, {(3S,4R,5R)-4-(4-Methoxyphenyl)-5-[4-(3-methoxypropyl)-3,4-dihydro-2H-benzo[1,4]oxazin-6-ylmethoxy]piperidin-3-yloxyl}acetonitrile] | 3.8 to 814 nM
COCCCN1CCOc2ccc(CO[C@H]3CNC[C@@H](OC[C@H](O)COC)[C@@H]3c3ccc(OC)cc3)cc21 [Example 2, (R)-1-Methoxy-3-{(3S,4R,5R)-4-(4-methoxyphenyl)-5-[4-(3-methoxypropyl)-3,4-dihydro-2H-benzo[1,4]oxazin-6-ylmethoxy]piperidin-3-yloxy}propan-2-ol] | 3.8 to 814 nM
COCCCN1CCOc2ccc(CO[C@H]3CNC[C@@H](OCC(C)(C)OC)[C@@H]3c3ccc(OC)cc3)cc21 [Example 8, 6-[(3R,4R,5S)-5-(2-Methoxy-2-methylpropoxy)-4-(4-methoxyphenyl)piperidin-3-yloxymethyl]-4-(3-methoxypropyl)-3,4-dihydro-2H-benzo[1,4]oxazine] | 3.8 to 814 nM
COCCCN1CCOc2ccc(CO[C@H]3CNC[C@@H](OCC(=O)N4[C@H](C)COC[C@@H]4C)[C@@H]3c3ccc(OC)cc3)cc21 [Example 61, 1-((3S,5R)-3,5-Dimethylmorpholin-4-yl)-2-{(3S,4R,5R)-4-(4-methoxyphenyl)-5-[4-(3-methoxypropyl)-3,4-dihydro-2H-benzo[1,4]oxazin-6-ylmethoxy]piperidin-3-yloxy}-ethanone] | 3.8 to 814 nM
COCCCN1CCOc2ccc(CO[C@H]3CNC[C@@H](OCCN4[C@H](C)COC[C@@H]4C)[C@@H]3c3ccc(OC)cc3)cc21 [Example 68, 6-[(3R,4R,5S)-5-[2-((3R,5S)-3,5-Dimethylmorpholin-4-yl)ethoxy]-4-(4-methoxy-phenyl)piperidin-3-yloxymethyl]-4-(3-methoxypropyl)-3,4-dihydro-2H-benzo[1,4]oxazine] | 3.8 to 814 nM
COCCCN1CCOc2ccc(CO[C@H]3CNC[C@@H](OC[C@H](O)COC)[C@@H]3c3ccc(SCCOC)cc3)cc21 [Example 70, (R)-1-Methoxy-3-{(3S,4R,5R)-4-[4-(2-methoxyethylsulfanyl)phenyl]-5-[4-(3-methoxy-propyl)-3,4-dihydro-2H-benzo[1,4]oxazin-6-ylmethoxy]piperidin-3-yloxy}propan-2-ol] | 3.8 to 814 nM
